# Measurements taken from patent US11306064B2, “Benzothia(di)azepine compounds and their use as bile acid modulators” (Albireo AB, priority 2018, dated 2022).
# Tests used:
# Human ASBT = molecular target: T1, Human ASBT (Homo sapiens, UniProt Q12908); assay: ASBT (h/m) assay: 3H-taurocholic acid uptake in human ASBT-overexpressing cells; assay type: cell-based; details: 0.25 μM 3H-taurocholic acid and 5 μM cold taurocholic acid, 20 minutes, read-out: hASBT IC50
# T1 construct: expressed in transfected cells; kept under Puromycin selection
# T1 sequence (Q12908 1-348): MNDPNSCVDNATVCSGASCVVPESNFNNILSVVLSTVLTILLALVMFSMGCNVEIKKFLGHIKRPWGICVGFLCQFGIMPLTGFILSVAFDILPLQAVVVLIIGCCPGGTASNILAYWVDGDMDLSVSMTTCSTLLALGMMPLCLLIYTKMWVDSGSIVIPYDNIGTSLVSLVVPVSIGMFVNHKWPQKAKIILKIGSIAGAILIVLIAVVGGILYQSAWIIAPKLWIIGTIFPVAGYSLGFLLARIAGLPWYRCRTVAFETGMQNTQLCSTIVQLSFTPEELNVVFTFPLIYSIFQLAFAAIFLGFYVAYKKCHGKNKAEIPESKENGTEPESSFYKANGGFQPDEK
# Method: ASBT (h/m) Assay Protocol
# 10,000 cells (Human or Mouse ASBT-overexpressing cells) were seeded in 96-wells plate (Corning CLS3809) in 200 μL MEM-alpha medium (Gibco 12571-063) supplemented with 10% FBS (Gibco 10438026) containing Puromycin (Gibco A1113803) (10 μg/mL) and incubated at 37° C. in 5% CO2 for 48 hours. After incubation, media was decanted from the wells and cells were washed two times with 300 μL of basal MEM-alpha medium (FBS-free). After decanting basal MEM-alpha medium each time, plates were tapped against paper towel to ensure maximum removal of residual media. Test inhibitor dilutions (highest test concentration being 10 μM, 3-fold serial dilution, 10 points) prepared in DMSO (Sigma D2650) were added in incubation mix (maintaining 0.2% final DMSO concentration) containing 0.25 μM 3H-taurocholic acid (ARC ART-1368) and 5 μM of cold taurocholic acid (Sigma T4009). 50 μL of incubation mix containing test inhibitors was then added to the wells (in duplicate) and the plates were incubated for 20 minutes in a CO2 incubator at 37° C. After incubation, the reaction was stopped by keeping the plates on ice water mix for 2-3 minutes and then the incubation mix was aspirated completely from the wells. The wells were washed two times with 250 μL of chilled unlabelled 1 mM taurocholic acid dissolved in HEPES (Gibco 15630080)-buffered (10 mM) HBSS (Gibco 14175079) (pH 7.4). The plates were tapped against a paper towel after every wash to ensure maximum removal of blocking buffer.
# (§1) 100 μL of MicroScint-20 (PerkinElmer 6013621) was added to the wells and kept overnight at room temperature before reading the plates in TopCount NXT™ Microplate Scintillation and Luminescence Counter from PerkinElmer under 3H Test protocol (set at 120 seconds reading time per well).
# (§2) Preparation of Test Compound Dilutions
# (§3) All test compounds were provided in powder form at room temperature. 10 mM DMSO stocks of the test compounds were prepared, aliquoted and stored at −20° C. From the 10 mM DMSO stock of the compounds, a 3-fold serial dilution in DMSO was prepared to get a total of 10 dilutions of the test compounds. 0.5 μL of this dilution in DMSO was added to 250 μL of FBS-free basal media containing 3H-taurocholic acid and cold taurocholic acid to prepare the incubation mixture.
# Human LBAT = molecular target: T2, Human LBAT (Homo sapiens, UniProt Q14973); assay: LBAT (h/m) assay: 3H-taurocholic acid uptake in human LBAT-overexpressing cells; assay type: cell-based; details: 0.3 μM 3H-taurocholic acid and 7.5 μM cold taurocholic acid, 20 minutes, read-out: hLBAT IC50
# T2 construct: expressed in transfected cells; kept under Geneticin selection
# T2 sequence (Q14973 1-349): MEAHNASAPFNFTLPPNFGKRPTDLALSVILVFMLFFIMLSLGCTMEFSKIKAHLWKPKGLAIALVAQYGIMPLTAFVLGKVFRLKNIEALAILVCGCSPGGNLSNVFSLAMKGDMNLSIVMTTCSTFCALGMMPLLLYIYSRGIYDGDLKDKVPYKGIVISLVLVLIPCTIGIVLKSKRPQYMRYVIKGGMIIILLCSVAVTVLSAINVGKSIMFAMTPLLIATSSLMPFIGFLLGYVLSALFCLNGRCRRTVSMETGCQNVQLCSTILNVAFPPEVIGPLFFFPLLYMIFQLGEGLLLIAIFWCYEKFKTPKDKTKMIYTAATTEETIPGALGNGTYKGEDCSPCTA
# Method: LBAT (h/m) Assay Protocol
# 20,000 cells (Human or Mouse LBAT-overexpressing cells) were seeded in 96-wells plate (Corning CLS3809) in 100 μL MEM-alpha medium (Gibco 12571-063) supplemented with 10% FBS (Gibco 10438026) containing Geneticin (Gibco 10131-027) (1 mg/mL) and incubated at 37° C. in 5% CO2 for 24 hours. After incubation, media was decanted from the wells and cells were washed two times with 300 μL of basal MEM-alpha medium (FBS-free). After decanting basal MEM-alpha medium each time, plates were tapped against paper towel to ensure maximum removal of residual media. For human LBAT, incubation mix was prepared by adding test inhibitor dilutions (3-fold serial dilution in DMSO (Sigma D2650), 10 points) in MEM-alpha (without FBS) containing 0.3 μM 3H-taurocholic acid (ARC ART-1368) and 7.5 μM cold taurocholic acid (Sigma T4009) (maintaining 0.2% final DMSO concentration). For mouse LBAT, incubation mix was prepared by adding test inhibitor dilutions (3-fold serial dilution in DMSO, 10 points) in MEM-alpha (without FBS) containing 0.3 μM 3H-taurocholic acid and 25 μM cold taurocholic acid maintaining 0.2% final DMSO concentration).
# 50 μL of incubation mix containing test inhibitors was then added to the wells (in duplicate) and the plates were incubated for 20 minutes in a CO2 incubator at 37° C. After incubation, the reaction was stopped by keeping the plates on ice water mix for 2-3 minutes and then the incubation mix was aspirated completely from the wells. The wells were washed two times with 250 μL of chilled unlabelled 1 mM taurocholic acid dissolved in HEPES (Gibco 15630080)-buffered (10 mM) HBSS (Gibco 14175079) (pH 7.4). The plates were tapped against a paper towel after every wash to ensure maximum removal of blocking buffer.
# as §1, with “well, with normal plate orientation).” for “well).”
# as §2, §3
SMILES,IC50 (Human ASBT) [nM],IC50 (Human LBAT) [nM]
"CCCCC1(CCCC)CN(c2ccccc2)c2cc(Br)c(O/C=C/C(=O)O)cc2S(=O)(=O)N1 [Example 75, (E)-3-((7-bromo-3,3-dibutyl-1,1-dioxido-5-phenyl-2,3,4,5-tetrahydro-1,2,5-benzothiadiazepin-8-yl)oxy)acrylic Acid]",148,349
"CCCCC1(CCCC)CN(c2ccccc2)c2cc(C#N)c(O/C=C/C(=O)O)cc2S(=O)(=O)C1 [Example 82, (E)-3-((3,3-dibutyl-7-cyano-1,1-dioxido-5-phenyl-2,3,4,5-tetrahydro-1,5-benzothiazepin-8-yl)oxy)acrylic Acid]",873,270
"CCCC[C@@]1(CC)CN(c2ccccc2)c2cc(SC)c(O/C=C\C(=O)O)cc2S(=O)(=O)C1 (single isomer, unassigned) [Example 60]",39,4220
"CCCCC1(CCCC)CN(c2ccccc2)c2cc(SC)c(O/C=C/C(=O)O)cc2S(=O)(=O)C1 [Example 1, (E)-3-((3,3-dibutyl-7-(methylthio)-1,1-dioxido-5-phenyl-2,3,4,5-tetrahydro-1,5-benzothiazepin-8-yl)oxy)acrylic acid]",70,145
"CCCCC1(CCCC)CN(c2ccc(C(=O)N(C)C)cc2)c2cc(SC)c(O/C=C(\F)C(=O)O)cc2S(=O)(=O)C1 [Example 104, (Z)-3-((3,3-dibutyl-5-(4-(dimethylcarbamoyl)phenyl)-7-(methylthio)-1,1-dioxido-2,3,4,5-tetrahydro-1,5-benzothiazepin-8-yl)oxy)-2-fluoroacrylic Acid]",3330,290
"CCCCC1(CCCC)CN(c2ccccc2)c2cc(SC)c(O/C=C(\F)C(=O)O)cc2S(=O)(=O)N1C [Example 105, (Z)-3-((3,3-dibutyl-2-methyl-7-(methylthio)-1,1-dioxido-5-phenyl-2,3,4,5-tetrahydro-1,2,5-benzothiadiazepin-8-yl)oxy)-2-fluoroacrylic Acid]",–,68
"CCCC[C@@]1(CC)CN(c2ccccc2)c2cc(NC)c(O/C=C/C(=O)O)cc2S(=O)(=O)C1 (single isomer, unassigned) [Example 92]",748,1470
"CCCC[C@]1(CC)CN(c2ccccc2)c2cc(SC)c(O/C=C\C(=O)O)cc2S(=O)(=O)C1 (single isomer, unassigned) [Example 61]",1620,–
"CCCCC1(CCCC)CN(c2ccccc2)c2cc(F)c(O/C=C/C(=O)O)cc2S(=O)(=O)C1 [Example 81, (E)-3-((3,3-dibutyl-7-fluoro-1,1-dioxido-5-phenyl-2,3,4,5-tetrahydro-1,5-benzothiazepin-8-yl)oxy)acrylic Acid]",771,210
"CCCCC1(CCCC)CN(c2ccc(Br)cc2)c2cc(SC)c(O/C=C(\F)C(=O)O)cc2S(=O)(=O)C1 [Example 94, (Z)-3-((5-(4-bromophenyl)-3,3-dibutyl-7-(methylthio)-1,1-dioxido-2,3,4,5-tetrahydro-1,5-benzothiazepin-8-yl)oxy)-2-fluoroacrylic Acid]",42,96
"CCCCC1(CC)CN(c2ccccc2)c2cc(SC)c(O/C=C/C(=O)O)cc2S(=O)(=O)N1 (racemic) [Example 76, (E)-3-((3-butyl-3-ethyl-7-(methylthio)-1,1-dioxido-5-phenyl-2,3,4,5-tetrahydro-1,2,5-benzothiadiazepin-8-yl)oxy)acrylic Acid]",41,217
"CCCCC1(CC)CN(c2ccccc2)c2cc(N(C)C)c(O/C=C/C(=O)O)cc2S(=O)(=O)C1 (stereo not shown) [Example 80, (E)-3-((3-butyl-7-(dimethylamino)-3-ethyl-1,1-dioxido-5-phenyl-2,3,4,5-tetrahydro-1,5-benzothiazepin-8-yl)oxy)acrylic Acid]",7.5,828
"CCCCC1(CCCC)CN(c2ccccc2)c2cc(N(C)C)c(O/C=C/C(=O)O)cc2S(=O)(=O)C1 [Example 8, (E)-3-((3,3-dibutyl-7-(dimethylamino)-1,1-dioxido-5-phenyl-2,3,4,5-tetrahydro-1,5-benzothiazepin-8-yl)oxy)acrylic Acid]",40,1470
"CCCCC1(CC)CN(c2ccccc2)c2cc(Cl)c(O/C=C/C(=O)O)cc2S(=O)(=O)C1 (single isomer, unassigned) [Example 51, (E)-3-((3-butyl-7-chloro-3-ethyl-1,1-dioxido-5-phenyl-2,3,4,5-tetrahydro-1,5-benzothiazepin-8-yl)oxy)acrylic acid]",–,96
"CCCCC1(CC)CN(c2ccccc2)c2cc(Br)c(O/C=C/C(=O)O)cc2S(=O)(=O)C1 (single isomer, unassigned) [Example 5, (E)-3-((7-bromo-3-butyl-3-ethyl-1,1-dioxido-5-phenyl-2,3,4,5-tetrahydro-1,5-benzothiazepin-8-yl)oxy)acrylic acid]",1230,290
"CCCCC1(CC)CN(c2ccccc2)c2cc(NC)c(O/C=C/C(=O)O)cc2S(=O)(=O)C1 (racemic) [Example 91, (E)-3-((3-butyl-3-ethyl-7-(methylamino)-1,1-dioxido-5-phenyl-2,3,4,5-tetrahydro-1,5-benzothiazepin-8-yl)oxy)acrylic Acid]",41,1300
"CCCCC1(CC)CN(c2ccccc2)c2cc(SC)c(O/C=C/C(=O)O)cc2S(=O)(=O)C1 (single isomer, unassigned) [Example 17, (E)-3-((3-butyl-3-ethyl-7-(methylthio)-1,1-dioxido-5-phenyl-2,3,4,5-tetrahydro-1,5-benzothiazepin-8-yl)oxy)acrylic acid]",–,116
"CCCCC1(CC)CN(c2ccccc2)c2cc(SC)c(O/C=C\C(=O)O)cc2S(=O)(=O)C1 (racemic) [Example 59, (Z)-3-((3-butyl-3-ethyl-7-(methylthio)-1,1-dioxido-5-phenyl-2,3,4,5-tetrahydro-1,5-benzothiazepin-8-yl)oxy)acrylic acid]",85,–
